In patent US7429679B2, “Sulphonic acid salt of sibutramine” (CJ Corporation, priority 2005, dated 2008):
In brackets after ≈: the same amount, converted by molar mass. Entries after “also recorded” stand apart in the source; their conditions may differ. Like-named read-outs stand apart in the source and are kept apart here.

How the values were obtained:
Format in all cases: physicochemical
[1] = Evaluation of hygroscopicity: water content (K.F.) after exposure to humid conditions at 25° C.; conditions: for change in water content under humid conditions (in words): relative humidities of 10%, 75% and 90%, up to one week or longer
Description: The sulphonic acid salts of sibutramine, prepared in Examples 1 to 5, and sibutramine hydrochloride monohydrate were exposed to humid conditions (10%, 75% and 90% RH) at 25° C. for a period of three days or one week. Then, the water content (K.F. water %) of the samples was measured.

[2] = Evaluation of solubility in distilled water and aqueous solutions having various pH values
[3] = Evaluation of stability: stringent 60° C. heat treatment, content by HPLC; design: content (HPLC) upon 60° C. heat treatment: reference not given here
Description: The sulphonic acid salts of sibutramine, prepared in Examples 1 to 5, and sibutramine hydrochloride monohydrate were exposed to a stringent 60° C. heat treatment.
HPLC was performed under the following conditions.
Wavelength of UV detection: 225 nm
Column: octadecyl silica gel, C18 (4.6×150 mm, 5 μm)
Mobile phase: an aqueous solution of ammonium phosphate monohydride (0.05 M) (adjusted to pH 6 with phosphoric acid): acetonitrile=35:65

[4] = Evaluation of light stability: exposure to fluorescence at 25° C., ICH light stability test chamber, content by HPLC; design: content (HPLC) in light stability test: reference not given here
Description: A light stability test was performed as follows. The sulphonic acid salts of sibutramine, prepared in Examples 1 to 5, and sibutramine hydrochloride monohydrate were exposed to fluorescence at 25° C. using a light stability test chamber suitable for the ICH guideline, for storage periods of 1, 2 and 4 weeks.

[5] = distilled water (DW) and buffer solutions at various pH values
[6] = 10% relative humidity, 25° C., 1 week
[7] = 10% relative humidity, 25° C., 3 days
[8] = 75% relative humidity, 25° C., 1 week
[9] = 75% relative humidity, 25° C., 3 days
[10] = 90% relative humidity, 25° C., 1 week
[11] = 90% relative humidity, 25° C., 3 days

## CC(C)CC(N(C)C)C1(c2ccc(Cl)cc2)CCC1 (centres unmarked) [Besylate, sibutramine besylate]
[1]; 10% relative humidity, 25° C., 1 week, listed as Bensylate
  water content (K.F. water %): 0.02%
[1]; 10% relative humidity, 25° C., 3 days, listed as Bensylate
  water content (K.F. water %): 0.02%
[1]; 75% relative humidity, 25° C., 1 week, listed as Bensylate
  water content (K.F. water %): 0.05%
[1]; 75% relative humidity, 25° C., 3 days, listed as Bensylate
  water content (K.F. water %): 0.02%
[1]; 90% relative humidity, 25° C., 1 week, listed as Bensylate
  water content (K.F. water %): 0.05%
[1]; 90% relative humidity, 25° C., 3 days, listed as Bensylate
  water content (K.F. water %): 0.05%
[1]; Initial, listed as Bensylate
  water content (K.F. water %): 0.02%
[1]
  change in water content under humid conditions (in words): almost no change in water content
[2]; DW (distilled water)
  solubility: 19.18 mg/mL
[2]; aqueous buffer, distilled water (DW) and buffer solutions at various pH values, read-out: solubility against the solubility sufficient for preparing pharmaceutical formulations such as capsules
  solubility: > 3 mg/mL
[2]; [5]
  solubility compared to sibutramine hydrochloride monohydrate (in words): slightly lower solubility than sibutramine hydrochloride monohydrate
[2]; distilled water (DW) and buffer solutions at various pH values, listed as besylate
  solubility compared to sibutramine hydrochloride monohydrate (in words): slightly low solubility compared to sibutramine hydrochloride monohydrate
[2]; pH 1.2
  solubility: 15.18 mg/mL
[2]; pH 4.0
  solubility: 8.51 mg/mL
[2]; pH 5.3
  solubility: 5.72 mg/mL
[2]; pH 6.8
  solubility: 21.86 mg/mL
[2]; pH 7.4
  solubility: 7.01 mg/mL
[3]; 60° C., 1 wk
  content (HPLC) upon 60° C. heat treatment: 1.000
[3]; 60° C., 2 wks
  content (HPLC) upon 60° C. heat treatment: 0.999
[3]; 60° C., 4 wks
  content (HPLC) upon 60° C. heat treatment: 1.000
[3]; Initial
  content (HPLC) upon 60° C. heat treatment: 1.000
[4]; Initial
  content (HPLC) in light stability test: 1.000
[4]; fluorescence, 25° C., 1 wk
  content (HPLC) in light stability test: 1.000
[4]; fluorescence, 25° C., 2 wks
  content (HPLC) in light stability test: 0.999
[4]; fluorescence, 25° C., 4 wks
  content (HPLC) in light stability test: 0.999

## CC(C)CC(N(C)C)C1(c2ccc(Cl)cc2)CCC1.CC1(C)C2CCC1(CS(=O)(=O)O)C(=O)C2 (centres unmarked) [Camsylate, sibutramine camsylate]
[1]; [6]
  water content (K.F. water %): 0.08%
[1]; [7]
  water content (K.F. water %): 0.09%
[1]; [8]
  water content (K.F. water %): 0.06%
[1]; [9]
  water content (K.F. water %): 0.06%
[1]; [10]
  water content (K.F. water %): 0.12%
[1]; [11]
  water content (K.F. water %): 0.08%
[1]; Initial
  water content (K.F. water %): 0.09%
[1]
  change in water content under humid conditions (in words): almost no change in water content
[2]; DW (distilled water)
  solubility: 23.67 mg/mL
[2]; pH 1.2
  solubility: 16.18 mg/mL
[2]; pH 4.0
  solubility: 16.75 mg/mL
[2]; pH 5.3
  solubility: 7.45 mg/mL
[2]; pH 6.8
  solubility: 29.83 mg/mL
[2]; pH 7.4
  solubility: 13.97 mg/mL
[3]; 60° C., 1 wk
  content (HPLC) upon 60° C. heat treatment: 1.000
[3]; 60° C., 2 wks
  content (HPLC) upon 60° C. heat treatment: 0.999
[3]; 60° C., 4 wks
  content (HPLC) upon 60° C. heat treatment: 0.999
[3]; Initial
  content (HPLC) upon 60° C. heat treatment: 1.000
[4]; Initial
  content (HPLC) in light stability test: 1.000
[4]; fluorescence, 25° C., 1 wk
  content (HPLC) in light stability test: 0.999
[4]; fluorescence, 25° C., 2 wks
  content (HPLC) in light stability test: 1.000
[4]; fluorescence, 25° C., 4 wks
  content (HPLC) in light stability test: 0.999

## CC(C)CC(N(C)C)C1(c2ccc(Cl)cc2)CCC1 (centres unmarked) [Edisylate, sibutramine edisylate]
[1]; [6]
  water content (K.F. water %): 0.05%
[1]; [7]
  water content (K.F. water %): 0.06%
[1]; [8]
  water content (K.F. water %): 0.05%
[1]; [9]
  water content (K.F. water %): 0.04%
[1]; [10]
  water content (K.F. water %): 0.05%
[1]; [11]
  water content (K.F. water %): 0.04%
[1]; Initial
  water content (K.F. water %): 0.05%
[1]
  change in water content under humid conditions (in words): almost no change in water content
[2]; DW (distilled water)
  solubility: 25.98 mg/mL (≈ 92.8 mM)
[2]; [5]
  solubility compared to sibutramine hydrochloride monohydrate (in words): slightly low solubility compared to sibutramine hydrochloride monohydrate; also recorded: slightly lower solubility than sibutramine hydrochloride monohydrate
[2]; pH 1.2
  solubility: 10.57 mg/mL (≈ 37.8 mM)
[2]; pH 4.0
  solubility: 9.78 mg/mL (≈ 34.9 mM)
[2]; pH 5.3
  solubility: 5.68 mg/mL (≈ 20.3 mM)
[2]; pH 6.8
  solubility: 19.44 mg/mL (≈ 69.5 mM)
[2]; pH 7.4
  solubility: 8.04 mg/mL (≈ 28.7 mM)
[3]; 60° C., 1 wk
  content (HPLC) upon 60° C. heat treatment: 0.999
[3]; 60° C., 2 wks
  content (HPLC) upon 60° C. heat treatment: 1.000
[3]; 60° C., 4 wks
  content (HPLC) upon 60° C. heat treatment: 0.999
[3]; Initial
  content (HPLC) upon 60° C. heat treatment: 1.000
[4]; Initial
  content (HPLC) in light stability test: 1.000
[4]; fluorescence, 25° C., 1 wk
  content (HPLC) in light stability test: 1.000
[4]; fluorescence, 25° C., 2 wks
  content (HPLC) in light stability test: 0.999
[4]; fluorescence, 25° C., 4 wks
  content (HPLC) in light stability test: 1.000

## CC(C)CC(N(C)C)C1(c2ccc(Cl)cc2)CCC1 (centres unmarked) [Esylate hemihydrate, sibutramine esylate hemihydrate]
[1]; 10% relative humidity, 25° C., 1 week, hemihydrate
  water content (K.F. water %): 2.37%
[1]; 10% relative humidity, 25° C., 3 days, hemihydrate
  water content (K.F. water %): 2.35%
[1]; 75% relative humidity, 25° C., 1 week, hemihydrate
  water content (K.F. water %): 2.35%
[1]; 75% relative humidity, 25° C., 3 days, hemihydrate
  water content (K.F. water %): 2.29%
[1]; 90% relative humidity, 25° C., 1 week, hemihydrate
  water content (K.F. water %): 2.40%
[1]; 90% relative humidity, 25° C., 3 days, hemihydrate
  water content (K.F. water %): 2.44%
[1]; Initial, hemihydrate
  water content (K.F. water %): 2.37%
[1]
  change in water content under humid conditions (in words): almost no change in water content
[2]; DW (distilled water), hemihydrate
  solubility: 84.10 mg/mL
[2]; distilled water (DW) and buffer solutions at various pH values, hemihydrate
  solubility compared to sibutramine hydrochloride monohydrate (in words): excellent solubility compared to sibutramine hydrochloride monohydrate
[2]; distilled water and aqueous solutions of pH 1.2, pH 4.0, pH 5.3, pH 6.8 and pH 7.4
  solubility relative to sibutramine hydrochloride: two times-higher than the solubility of sibutramine hydrochloride
[2]; pH 1.2, hemihydrate
  solubility: 70.65 mg/mL
[2]; pH 4.0, hemihydrate
  solubility: 26.42 mg/mL
[2]; pH 5.3, hemihydrate
  solubility: 19.53 mg/mL
[2]; pH 6.8, hemihydrate
  solubility: 69.42 mg/mL
[2]; pH 7.4, hemihydrate
  solubility: 27.61 mg/mL
[3]; 60° C., 1 wk, hemihydrate
  content (HPLC) upon 60° C. heat treatment: 1.000
[3]; 60° C., 2 wks, hemihydrate
  content (HPLC) upon 60° C. heat treatment: 0.999
[3]; 60° C., 4 wks, hemihydrate
  content (HPLC) upon 60° C. heat treatment: 0.999
[4]; fluorescence, 25° C., 1 wk, hemihydrate
  content (HPLC) in light stability test: 0.999
[4]; fluorescence, 25° C., 2 wks, hemihydrate
  content (HPLC) in light stability test: 1.000
[4]; fluorescence, 25° C., 4 wks, hemihydrate
  content (HPLC) in light stability test: 0.999
